The values below come from BindingDB's records for doi:10.1021/jm9911229 (University of Ferrara, 2000).

Structures can show the parent of a compound that is named as a salt.

The nature of this test: Tested for 50% inhibition of generation of Human Ha-ras polymerase chain reaction(PCR) products.
On to `Cn1cc(NC(=O)c2cc(NC(=O)c3cc(NC(=O)c4cc5cc(N(CCCl)CCCl)ccc5o4)cn3C)cn2C)cc1C(=O)NCCC(=N)N` [5-[Bis-(2-chloro-ethyl)-amino]-benzofuran-2-carboxylic acid (5-{5-[5-(2-carbamimidoyl-ethylcarbamoyl)-1-methyl-1H-pyrrol-3-ylcarbamoyl]-1-methyl-1H-pyrrol-3-ylcarbamoyl}-1-methyl-1H-pyrrol-3-yl)-amide; hydrochloride], for which the concentration for half-maximal inhibition (IC50) (in general, the concentration at which inhibition is half-maximal) was 15 nM.
`Cn1cc(NC(=O)c2cc(NC(=O)c3cc(NC(=O)c4cc5cc(NC(=O)c6ccc(N(CCCl)CCCl)cc6)ccc5o4)cn3C)cn2C)cc1C(=O)NCCC(=N)N` [5-{4-[Bis-(2-chloro-ethyl)-amino]-benzoylamino}-benzofuran-2-carboxylic acid (5-{5-[5-(2-carbamimidoyl-ethylcarbamoyl)-1-methyl-1H-pyrrol-3-ylcarbamoyl]-1-methyl-1H-pyrrol-3-ylcarbamoyl}-1-methyl-1H-pyrrol-3-yl)-amide; hydrochloride] came in with an IC50 of 15 nM. In other words, the double-digit nanomolar range.
`Cn1cc(NC(=O)c2cc(NC(=O)c3cc(NC(=O)c4nc5ccc(NC(=O)c6ccc(N(CCCl)CCCl)cc6)cc5[nH]4)cn3C)cn2C)cc1C(=O)NCCC(=N)N` [5-{4-[Bis-(2-chloro-ethyl)-amino]-benzoylamino}-1H-benzoimidazole-2-carboxylic acid (5-{5-[5-(2-carbamimidoyl-ethylcarbamoyl)-1-methyl-1H-pyrrol-3-ylcarbamoyl]-1-methyl-1H-pyrrol-3-ylcarbamoyl}-1-methyl-1H-pyrrol-3-yl)-amide; hydrochloride] came in with a concentration for half-maximal inhibition (IC50) of 15 nM.
The molecule `Cn1cc(NC(=O)c2cc(NC(=O)c3cc(NC(=O)c4cc5cc(NC(=O)c6ccc(N(CCCl)CCCl)cc6)ccc5[nH]4)cn3C)cn2C)cc1C(=O)NCCC(=N)N` [5-{4-[Bis-(2-chloro-ethyl)-amino]-benzoylamino}-1H-indole-2-carboxylic acid (5-{5-[5-(2-carbamimidoyl-ethylcarbamoyl)-1-methyl-1H-pyrrol-3-ylcarbamoyl]-1-methyl-1H-pyrrol-3-ylcarbamoyl}-1-methyl-1H-pyrrol-3-yl)-amide; hydrochloride] had a 50% inhibitory concentration (IC50) of 15 nM.
In turn, `Cn1cc(NC(=O)c2cc(NC(=O)c3cc(NC(=O)c4cc5cc(N(CCCl)CCCl)ccc5[nH]4)cn3C)cn2C)cc1C(=O)NCCC(=N)N` [5-[Bis-(2-chloro-ethyl)-amino]-1H-indole-2-carboxylic acid (5-{5-[5-(2-carbamimidoyl-ethylcarbamoyl)-1-methyl-1H-pyrrol-3-ylcarbamoyl]-1-methyl-1H-pyrrol-3-ylcarbamoyl}-1-methyl-1H-pyrrol-3-yl)-amide; hydrochloride] came in with an IC50 of 20 nM.
With `Cn1cc(NC(=O)c2cc(NC(=O)c3cc(NC(=O)c4cc5cc(NC(=O)c6ccc(N(CCCl)CCCl)cc6)ccc5n4C)cn3C)cn2C)cc1C(=O)NCCC(=N)N` [5-{4-[Bis-(2-chloro-ethyl)-amino]-benzoylamino}-1-methyl-1H-indole-2-carboxylic acid (5-{5-[5-(2-carbamimidoyl-ethylcarbamoyl)-1-methyl-1H-pyrrol-3-ylcarbamoyl]-1-methyl-1H-pyrrol-3-ylcarbamoyl}-1-methyl-1H-pyrrol-3-yl)-amide; hydrochloride], the midpoint of inhibition, the IC50, lay at 15 nM.
With `Cn1cc(NC(=O)c2cc(NC(=O)c3cc(NC(=O)c4cc5cc(N(CCCl)CCCl)ccc5n4C)cn3C)cn2C)cc1C(=O)NCCC(=N)N` [5-[Bis-(2-chloro-ethyl)-amino]-1-methyl-1H-indole-2-carboxylic acid (5-{5-[5-(2-carbamimidoyl-ethylcarbamoyl)-1-methyl-1H-pyrrol-3-ylcarbamoyl]-1-methyl-1H-pyrrol-3-ylcarbamoyl}-1-methyl-1H-pyrrol-3-yl)-amide; hydrochloride], 20 nM corresponded to half-maximal inhibition (IC50).
